Entries after “also recorded” stand apart in the source; their conditions may differ.
System: ROS
Test: Cell free ROS assay with H2O2 and H2DCF indicator
Conditions: free PEG added to C-GQDs (FIG. 18B)
Experimental: The samples (C-GQDs, H-GQDs, S-GQDs and P-GQDs) were incubated with H2O2 in 10% fetal bovine serum (FBS) solution at 37° C. Chemically hydrolyzed 2,7-dichlorodihydrofluorescein diacetate (H2DCF-DA), yielding H2DCF, was used as a fluorescent indicator of ROS production. The increase in ROS over 90 min with 10 μM and 20 μM H2O2 in the presence and absence of GQDs were monitored. In the case of C-GQDs and H-GQDs incubated with 20 μM H2O2, the ROS production increased ˜3 and ˜4 times respectively (FIG. 7A). […] Thus, confirming again the ROS quenching ability of PEG. […] The H-GQDs produced more ROS than C-GQDs, likely because of more free-radical-susceptible hydroxyl groups on the surface generated by the hydrothermal treatment.

polyethylene glycol [free PEG]
ROS quenching by free PEG in solution along with C-GQD: did not quench the ROS produced in solution; also recorded: No significant quenching

Source: patent US9642815B2, “Biocompatible graphene quantum dots for drug delivery and bioimaging applications” (Council of Scientific and Industrial Research, priority 2013, dated 2017)
